Measurements published in patent US20170360780A1, “PHARMACEUTICAL COMPOSITION COMPRISING BICYCLIC NITROGEN-CONTAINING AROMATIC HETEROCYCLIC AMIDE COMPOUND AS ACTIVE INGREDIENT” (Astellas Pharma Inc., priority 2014, published 2017).

Experiments:
[1] = tested on: KMS-12-BM cells; experiment: Test Example 4: anti-tumor test on nude mice bearing KMS-12-BM human myeloma tumors; format: in vivo; details: 17 days, next day of final administration
From the text: (§1) KMS-12-BM cells and RPMI 8226 cells which are derived from human myeloma were respectively purchased from JCRB cell bank (National Institutes of Biochemical Innovation, Health and Nutrition), and ATCC. KMS-12-BM cells were implanted to CAnN.Cg-Foxn1^nu/CrlCrlj mice (4- to 5-week-old male nude mice, Charles River Laboratories Japan, Inc.), and RPMI 8226 cells to CB17/Icr-Prkdc^scid/CrlCrlj mice (4- to 5-week-old male SCID mice, Charles River Laboratories Japan, Inc.), respectively. Each of tumor cells were prepared at 5×10^7 cells/mL of a mixed solution of PBS and Matrigel (registered trademark) in 1:1 ratio, and 0.1 mL was implanted to the mice under the skin on the back (5×10^6 cells/head). Dividing into groups by the tumor volume was performed when tumor cells were engrafted under the skin and the average tumor volume exceeded approximately 150 mm^3 (5 mice for each group). The test compound dissolved in 6% cyclodextrin aqueous solution (Sigma-Aldrich Co.) was orally administered by the dosage of 8 mg/kg or 1 mg/kg once a day. 6% Cyclodextrin aqueous solution was also orally administered for the solvent group (control group) once a day. Oral administration was performed continuously for 17 days for KMS-12-BM cells, and 18 days for RPMI 8226 cells. The inhibition rate of tumor growth and the rate of tumor regression on the next day of the final administration were calculated by using the formula below.
(§2) [Tumor volume (mm^3)]=[major axis of tumor (mm)]×[minor axis of tumor (mm)]^2×0.5
(§3) Inhibition rate of tumor growth (%)=(1−average of tumor volume growth in each group/average of tumor volume growth in control group)×100
(§4) Rate of tumor regression (%)=(1−average tumor volume in each group on measuring day/average tumor volume in each group when dividing groups)×100

[2] = tested on: RPMI 8226 cells; experiment: Test Example 4: anti-tumor test on SCID mice bearing RPMI 8226 human myeloma tumors; format: in vivo; details: RPMI 8226, SCID mice, 18 days, next day of final administration
From the text: as §1, §2, §3, §4

[3] = tested on: RPMI 8226 cells; experiment: Test Example 3: anti-tumor test on SCID mice bearing RPMI 8226 human myeloma tumors; format: in vivo; details: RPMI 8226, SCID mice, 8 mg/kg oral once a day, 21 days; next day of final administration
Description: RPMI 8226 cells (purchased) derived from human myeloma were prepared at 5×10^7 cells/mL of a mixed solution of PBS and Matrigel (registered trademark) in 1:1 ratio, and 0.1 mL was implanted to CB17/Icr-Prkdc^scid/CrlCrlj mice (5-week-old male SCID mice, Charles River Laboratories Japan, Inc.) under the skin on the back (5×10^6 cells/head). Dividing into groups by the tumor volume was performed when tumor cells were engrafted and the average tumor volume exceeded approximately 150 mm^3 (5 mice for each group). The test compound dissolved in 6% cyclodextrin aqueous solution was orally administered by the dosage of 8 mg/kg once a day for 21 days continuously. 6% Cyclodextrin aqueous solution was orally administered for a solvent group (control group) once a day.
(§5) The body weight and the tumor diameter were measured twice a week, and the anti-tumor effect and the effect on the body weight were examined. For calculation of the tumor volume, the formula below was used.
as §2
The inhibition rate of tumor growth and the rate of tumor regression were calculated from the average value of the tumor volume according to the formula below.
Inhibition rate of tumor growth (%)=(1−average of tumor volume growth in each group/average of tumor volume growth in control group)×100 […]

[4] = tested on: KMS-12-BM cells; experiment: Test Example 5: combination use with lenalidomide, nude mice bearing KMS-12-BM tumors; format: in vivo, human; details: 27 days, next day of final administration
Description: KMS-12-BM cells derived from human myeloma were prepared at 2.8×10^7 cells/mL of a mixed solution of PBS and Matrigel (registered trademark) in 1:1 ratio, and 0.1 mL was implanted to CAnN.Cg-Foxn1^nu/CrlCrlj mice (4-week-old male nude mice, Charles River Laboratories Japan, Inc.) under the skin on the back (2.8×10^6 cells/head). Dividing into groups by the tumor volume was performed when tumor cells were engrafted and the average tumor volume exceeded approximately 200 mm^3, and 5 mice were set for each group. The test compound dissolved in 6% cyclodextrin aqueous solution was orally administered by the dosage of 2 mg/kg once a day for 27 days. Lenalidomide (MedChemExpress.) was suspended in 6% cyclodextrin aqueous solution and was orally administered by the dosage of 100 mg/kg once a day for 27 days. The dosage of 2 mg/kg of the test compound and 100 mg/kg of lenalidomide were orally administered for a combination administered group once a day, respectively. 6% Cyclodextrin aqueous solution was orally administered for the solvent group (control group) once a day. The body weight and the tumor diameter were measured twice a week, and the anti-tumor effect and the effect on the body weight were examined. For calculation of the tumor volume, the formula below was used.
as §2
The inhibition rate of tumor growth and the rate of tumor regression were calculated from the average value of the average tumor volume according to the formula below.
as §3, §4

[5] = tested on: KMS-12-BM cells; experiment: Test Example 3: anti-tumor test on nude mice bearing KMS-12-BM human myeloma tumors; format: in vivo; details: 8 mg/kg oral once a day, 21 days, next day of final administration
Description: (§6) KMS-12-BM cells (purchased) or OPM-2 cells (purchased) derived from human myeloma were prepared at 5×10^7 cells/mL of a mixed solution of PBS and Matrigel (registered trademark) in 1:1 ratio, and 0.1 mL was implanted to CAnN.Cg-Foxn1^nu/CrlCrlj mice (4-week-old male nude mice, Charles River Laboratories Japan, Inc.) under the skin on the back (5×10^6 cells/head). Dividing into groups by the tumor volume was performed when tumor cells were engrafted and the average tumor volume exceeded approximately 300 mm^3 (5 mice for each group). The test compound dissolved in 6% cyclodextrin aqueous solution (Sigma-Aldrich Co.) was orally administered by the dosage of 8 mg/kg once a day for 21 days in the test using KMS-12-BM cells, and for 7 days in the test using OPM-2 cells, respectively. 6% Cyclodextrin aqueous solution was orally administered for a solvent group (control group) once a day.
as §5, §2
(§7) The inhibition rate of tumor growth and the rate of tumor regression were calculated from the average value of the tumor volume according to the formula below. […]

[6] = tested on: KMS-12-BM cells; experiment: Test Example 6: combination use with lenalidomide, nude mice bearing KMS-12-BM tumors; format: in vivo, human; details: for Rate of tumor regression / Inhibition rate of tumor growth: KMS-12-BM, nude mice, 14 days, next day of final administration; for Anti-tumor effect of combination use with lenalidomide versus single administration: mice bearing tumors of human myeloma, combination use of lenalidomide and compound
Description: KMS-12-BM cells derived from human myeloma were prepared at 5×10^7 cells/mL of a mixed solution of PBS and Matrigel (registered trademark) in 1:1 ratio, and 0.1 mL was implanted to CAnN.Cg-Foxn1^nu/CrlCrlj mice (4- to 5-week-old male nude mice, Charles River Laboratories Japan, Inc.) under the skin on the back (5×10^6 cells/head). Dividing into groups by the tumor volume was performed when tumor cells were engrafted under the skin and the average tumor volume exceeded approximately 200 mm^3. […] The test compound dissolved in 6% cyclodextrin aqueous solution was orally administered by the dosage of 8 mg/kg or 1 mg/kg once a day for 14 days continuously. Lenalidomide (MedChemExpress.) was suspended in 6% cyclodextrin aqueous solution and was orally administered by the dosage of 100 mg/kg once a day for 14 days continuously. The inhibition rate of tumor growth and the rate of tumor regression in each group on the next day of the final administration were calculated by using the formula below.
as §2, §3
Rate of tumor regression (%)=(1−average tumor volume in each group on measuring day/average tumor volume in each group when starting administration)×100
The inhibition rate of tumor growth and the rate of tumor regression in each group on the next day of the final administration is shown in Table 6.

[7] = tested on: OPM-2 cells; experiment: Test Example 3: anti-tumor test on nude mice bearing OPM-2 human myeloma tumors; format: in vivo; details: OPM-2, nude mice, 8 mg/kg oral once a day, 7 days; next day of final administration
Description: as §6, §5, §2, §7

[8] = test compound 8 mg/kg + lenalidomide 100 mg/kg oral once a day
[9] = test compound 8 mg/kg + solvent, oral once a day
[10] = test compound 1 mg/kg + lenalidomide 100 mg/kg oral once a day
[11] = test compound 1 mg/kg + solvent, oral once a day

Structure (SMILES): COc1ccc(CN2CCC(c3ccc4[nH]c(C(=O)N5CCN(Cc6ccc(C(F)(F)F)cc6)CC5)nc4c3)CC2)cn1 [Compound A1, (5-{1-[(6-methoxypyridin-3-yl)methyl]piperidin-4-yl}-1H-benzimidazol-2-yl){4-[4-(trifluoromethyl)benzyl]piperazin-1-yl}methanone]
- Inhibition rate of tumor growth ([1]; 8 mg/kg oral once a day): 99% inhibition
- Inhibition rate of tumor growth ([2]; 8 mg/kg oral once a day): 99% inhibition
- Inhibition rate of tumor growth [3]: 97% inhibition
- Rate of tumor regression ([4]; test compound 2 mg/kg + lenalidomide 100 mg/kg oral once a day): 100% regression
- Rate of tumor regression ([4]; test compound alone 2 mg/kg oral once a day): 24% regression
- Rate of tumor regression [5]: 100% regression
- Rate of tumor regression [6, 8]: 39% regression
- Inhibition rate of tumor growth [6, 9]: 100% inhibition
- Rate of tumor regression [7]: 17% regression

Structure (SMILES): COc1ccc(CN2CCC(c3ccc4[nH]c(C(=O)N5CCN(Cc6ccc(C(F)(F)F)cc6)CC5)nc4c3)CC2)cn1 [Compound A, (5-{1-[(6-methoxypyridin-3-yl)methyl]piperidin-4-yl}-1H-benzimidazol-2-yl) {4-[4-(trifluoromethyl)benzyl]piperazin-1-yl}methanone]
- Anti-tumor effect of combination use with lenalidomide versus single administration [6]: stronger anti-tumor effect than each single administration thereof

Structure (SMILES): COc1cnc(CN2CCC(c3ccc4[nH]c(C(=O)N5CCN(Cc6ccc(C(F)(F)F)cc6)CC5)nc4c3)CC2)cn1 [Compound B1, (5-{1-[(5-methoxypyrazin-2-yl)methyl]piperidin-4-yl}-1H-benzimidazol-2-yl){4-[4-(trifluoromethyl)benzyl]piperazin-1-yl}methanone]
- Rate of tumor regression ([1]; 8 mg/kg oral once a day): 6% regression
- Rate of tumor regression ([2]; 8 mg/kg oral once a day): 4% regression
- Rate of tumor regression [6, 8]: 42% regression
- Rate of tumor regression [6, 9]: 20% regression

Structure (SMILES): COc1cnc(CN2CCC(c3ccc4[nH]c(C(=O)N5CCN(Cc6ccc(C(F)(F)F)cc6)CC5)nc4c3)CC2)cn1 [Compound B, (5-{1-[(5-methoxypyrazin-2-yl)methyl]piperidin-4-yl}-1H-benzimidazol-2-yl){4-[4-(trifluoromethyl)benzyl]piperazin-1-yl}methanone]
- Anti-tumor effect of combination use with lenalidomide versus single administration [6]: stronger anti-tumor effect than each single administration thereof

Structure (SMILES): CCOc1cnc(CN2CCC(c3ccc4cc(C(=O)N5CCN(Cc6ccc(C#N)cc6)CC5)n(C)c4c3)CC2)cn1 [Compound C1, 4-({4-[(6-{1-[(5-ethoxypyrazin-2-yl)methyl]piperidin-4-yl}-1-methyl-1H-indol-2-yl)carbonyl]piperazin-1-yl}methyl)benzonitrile]
- Rate of tumor regression ([1]; 1 mg/kg oral once a day): 68% regression
- Rate of tumor regression ([2]; 1 mg/kg oral once a day): 25% regression
- Rate of tumor regression [6, 10]: 64% regression
- Rate of tumor regression [6, 11]: 40% regression

Structure (SMILES): CCOc1cnc(CN2CCC(c3ccc4cc(C(=O)N5CCN(Cc6ccc(C#N)cc6)CC5)n(C)c4c3)CC2)cn1 [Compound C, 4-({4-[(6-{1-[(5-ethoxypyrazin-2-yl)methyl]piperidin-4-yl}-1-methyl-1H-indol-2-yl)carbonyl]piperazin-1-yl}methyl)benzonitrile]
- Anti-tumor effect of combination use with lenalidomide versus single administration [6]: stronger anti-tumor effect than each single administration thereof

Structure (SMILES): COc1cnc(CN2CCC(c3ccc4c(c3)cc(C(=O)N3CCN(Cc5ccc(C#N)cc5)CC3)n4C)CC2)cn1 [Compound D1, 4-({4-[(5-{1-[(5-methoxypyrazin-2-yl)methyl]piperidin-4-yl}-1-methyl-1H-indol-2-yl)carbonyl]piperazin-1-yl}methyl)benzonitrile]
- Inhibition rate of tumor growth ([1]; 1 mg/kg oral once a day): 71% inhibition
- Inhibition rate of tumor growth ([2]; 1 mg/kg oral once a day): 75% inhibition
- Inhibition rate of tumor growth [6, 10]: 74% inhibition
- Inhibition rate of tumor growth [6, 11]: 61% inhibition

Structure (SMILES): COc1cnc(CN2CCC(c3ccc4c(c3)cc(C(=O)N3CCN(Cc5ccc(C#N)cc5)CC3)n4C)CC2)cn1 [Compound D, 4-({4-[(5-{1-[(5-methoxypyrazin-2-yl)methyl]piperidin-4-yl}-1-methyl-1H-indol-2-yl)carbonyl]piperazin-1-yl}methyl)benzonitrile]
- Anti-tumor effect of combination use with lenalidomide versus single administration [6]: stronger anti-tumor effect than each single administration thereof

Structure (SMILES): Nc1cccc2c1CN(C1CCC(=O)NC1=O)C2=O (stereo not drawn) [Lenalidomide, lenalidomide, reference compound]
- Inhibition rate of tumor growth ([4]; lenalidomide alone 100 mg/kg oral once a day): 53% inhibition
- Inhibition rate of tumor growth ([6]; solvent + lenalidomide 100 mg/kg oral once a day): 21% inhibition
